Measured values taken from patent US12691107B2, “Methods for the treatment and prevention of lung infections caused by gram-positive bacteria, fungus, or virus by administration of tafenoquine” (priority 2020, dated 2026).
Like-named read-outs stand apart in the source and are kept apart here.

Legend:
[1] = rat, in vivo, 125 mg/kg; cited from earlier work
[2] = system: HFF, mouse embryo fibroblast and Guinea Pig Lung cells; conditions: range over all three cytomegalovirus assays
[3] = Tissue distribution of [14C]radio-labeled tafenoquine in male rats; assay type: in vivo, rat; conditions: for concentration of tafenoquine in lung: 25 mg base/kg single oral dose
Experimental: FIG. 3: Concentration of tafenoquine in microgram equivalents per g of tissue in various tissues of male rats 12 h following administration of [14C]radio-labeled tafenoquine (25 mg base/kg). Radioactivity was measured in the combusted organs of euthanized rats by liquid scintillation analysis.
In this study, a single oral dose of [14C]radio-labeled tafenoquine (25 mg base/kg) was given to 60 male rats, and then groups of 5 animals were killed at time points ranging from 30 minutes to 120 hours post-dose. Radioactivity in the combusted organs of killed animals was measured by liquid scintillation analysis. When expressed as microgram equivalents tafenoquine per gram of tissue, the concentration of tafenoquine in lung were at 0.5, 1, 6, 12, 24, 48, 72, 96, and 120 hours post-administration were 1.21, 6.43, 133, 154, 136, 119, 83.7, 59.4, and 44.4, respectively.

[4] = system: Aspergillus fumigatus clinical isolate 293 (Af293); assay: Prophylactic efficacy in Aspergillus-infected immunosuppressed mice; assay type: in vivo, ICR mice; conditions: 2.5 or 5.0 mg/kg/day oral from day -2 through day +7
[5] = system: HCMV strain AD169; assay: CPE assay for HCMV in HFF cells; assay type: cell-based; conditions: Human betaherpesvirus 5, AD169
[6] = system: MCMV strain Smith; assay: MCMV qPCR assay in mouse embryo fibroblast cells; assay type: cell-based; conditions: 168 h, 7 d
[7] = system: Vero E6 cells; conditions: African green monkey
[8] = system: Pneumocystis; assay: Pneumocystis in vitro (Bartlett et al., 1991); assay type: cell-based; conditions: read-out: equivalent MIC in the absence of protein
Excerpt: Therefore, the minimum inhibitory concentration in vitro is approximately 10 microgram/ml.

[9] = system: E. coli; assay: Antibacterial MIC (broth microdilution); assay type: cell-based
Experimental: Growth Medium—Cation adjusted Mueller-Hinton broth was used as the test medium. Broth for panel preparation was prepared from commercial dehydrated medium (Difco formulation, BD Diagnostics, catalog number 275730).
Dilution of Investigational Agents—Polystyrene test tubes were used to prepare the drug dilutions and sterile U-shaped 96-well polystyrene microtiter trays were used for performing the MIC assays. Stock solutions of the investigational agents were prepared at concentrations 100-times the highest concentration to be tested (6400-1.25 μg/ml) using dimethyl sulfoxide. Aliquots of the stock solutions were dispensed into polypropylene vials and stored at −20° C. Further dilutions (1:50) were made in the culture medium (cation-adjusted Mueller-Hinton medium).
After the dilutions of the working 2-fold investigational antibacterial solutions were prepared, 50 μL of each concentration was transferred into rows of the first 10 wells of each 12-well column of the U-shaped disposable 96-well microtiter trays using a multichannel pipettor. The 11th well in each row served as the sterility control, and the 12th well contained only culture medium to serve as the growth control for each isolate. In like manner, the control drug for the organism being tested was prepared in a separate 96 well panel exactly as described above. A 50 μL volume of the standardized inoculum suspension of each test isolate was prepared in culture medium to directly inoculate each test well of the drug containing microtiter tray.
Inoculum Preparation—Colonies of each strain generated on sheep blood agar plates with overnight growth at 35° C. in ambient air were used to directly prepare a suspension equivalent in density to the 0.5 McFarland opacity standard. The exact turbidity of each suspension was determined using a desktop portable photometer. For panels containing 2× drug concentrations, a 1:100 dilution of the McFarland organism suspension was prepared in cation-adjusted Mueller-Hinton broth and 50 μL aliquots of each test (and control) strain was added to each well of the designated rows of the microtiter trays using a multichannel pipettor. The target inoculum concentration was 5×10^5 CFU/ml in each well.
Trays were removed and each well were inspected for evidence of growth (turbidity). The MIC was defined as the lowest concentration of the investigational agent and the control drug that prevents visibly discernible growth in the test wells.

[10] = system: Altenaria sp.; assay: Antifungal MIC (RPMI-1640 microdilution); assay type: cell-based; conditions: isolate Alt1
[11] = system: Cryptococcus neoformans; assay: Antifungal MIC (RPMI-1640 microdilution); assay type: cell-based
[12] = system: Saksenaea sp.; assay: Antifungal MIC (RPMI-1640 microdilution); assay type: cell-based
[13] = system: Candida glabrata; assay: Antifungal MIC (RPMI-1640 microdilution); assay type: cell-based
[14] = system: C. krusei; assay: Antifungal MIC (RPMI-1640 microdilution); assay type: cell-based; conditions: Pichia kudriavzevii, isolate ATCC 6258
[15] = system: Enterococcus faecium; assay: Antibacterial MIC (broth microdilution); assay type: cell-based; conditions: isolate 1593
[16] = system: Candida parapsilosis; assay: Antifungal MIC (RPMI-1640 microdilution); assay type: cell-based; conditions: for MIC50 / MIC: Lodderomyces parapsilosis

COc1cc(C)c2c(Oc3cccc(C(F)(F)F)c3)c(OC)cc(NC(C)CCCN)c2n1 (stereo not drawn) [Tafenoquine, N(4)-[2,6-Dimethoxy-4-methyl-5-[3-(trifluoromethyl)phenoxy]quinolin-8-yl]pentane-1,4-diamine]
Maximum plasma concentration following a single 125 mpk dose in female rats [1]: 2240 ng/mL | CC50s [2]: 13 to 17 µM | concentration of tafenoquine in lung ([3]; 0.5 hours post-administration): 1.21 microgram equivalents tafenoquine per gram of tissue | concentration of tafenoquine in lung ([3]; 1 hour): 6.43 microgram equivalents tafenoquine per gram of tissue | concentration of tafenoquine in lung ([3]; 6 hours): 133 microgram equivalents tafenoquine per gram of tissue | concentration of tafenoquine in lung ([3]; 12 hours): 154 microgram equivalents tafenoquine per gram of tissue | concentration of tafenoquine in lung ([3]; 24 hours): 136 microgram equivalents tafenoquine per gram of tissue | concentration of tafenoquine in lung ([3]; 48 hours): 119 microgram equivalents tafenoquine per gram of tissue | concentration of tafenoquine in lung ([3]; 72 hours): 83.7 microgram equivalents tafenoquine per gram of tissue | concentration of tafenoquine in lung ([3]; 96 hours): 59.4 microgram equivalents tafenoquine per gram of tissue | concentration of tafenoquine in lung ([3]; 120 hours): 44.4 microgram equivalents tafenoquine per gram of tissue | lung:blood concentration ratio ([3]; rat): 250 | ratio of lung:plasma concentrations ([3]; rat): ~650 | tissue accumulation ([3]; rat, FIG. 3): accumulate in lung more than any other tissue in the body | pulmonary fungal burden [4]: dose-related, albeit non-statistically significant trend towards reduced fungal burden | survival versus vehicle control ([4]; followed until day 12): no statistical differences in survival | EC50 [5]: > 6 µM | EC50 [6]: > 6 µM | CC50 [7]: 37.2 µM | MIC [8]: 5 µg/mL

COc1cc(C)c2c(Oc3cccc(C(F)(F)F)c3)c(OC)cc(NC(C)CCCN)c2n1.O=C(O)CCC(=O)O (stereo not drawn) [Tafenoquine Succinate]
MIC ([9]; Escherichia coli, ATCC25922, isolate ATCC 25922, read-out: MIC): > 64 µg/mL | MIC ([9]; Escherichia coli, isolate J4243 (MO72), read-out: MIC): > 64 µg/mL | MIC ([9]; isolate J4244 (JJ1886)): >64 µg/mL | MIC50 ([10]; read-out: MIC 50% inhibition): 2 µg/mL | MIC ([10]; read-out: MIC 100% inhibition): 4 µg/mL | MIC50 ([11]; Cryptococcus neoformans, read-out: MIC 50% inhibition, isolate CN3): 4 µg/mL | MIC50 ([11]; Cryptococcus neoformans, read-out: MIC 50% inhibition, isolate H99): 4 µg/mL | MIC50 ([11]; Cryptococcus neoformans, read-out: MIC 50% inhibition, isolate USC1597): 4 µg/mL | MIC ([11]; Cryptococcus neoformans, read-out: MIC 100% inhibition, isolate USC1597): 4 µg/mL | MIC 100% inhibition ([11]; isolate CN3): 4 µg/mL | MIC 100% inhibition ([11]; isolate H99): 4 µg/mL | MIC50 ([12]; read-out: MIC 50% inhibition, isolate Sak1): 4 µg/mL | MIC50 ([12]; read-out: MIC 50% inhibition, isolate Sak2): 2 µg/mL | MIC50 ([12]; read-out: MIC 50% inhibition, isolate Sak3): 8 µg/mL | MIC ([12]; read-out: MIC 100% inhibition, isolate Sak1): 8 µg/mL | MIC ([12]; read-out: MIC 100% inhibition, isolate Sak2): 2 µg/mL | MIC ([12]; read-out: MIC 100% inhibition, isolate Sak3): 8 µg/mL | MIC50 ([13]; Nakaseomyces glabratus, read-out: MIC 50% inhibition, isolate 05-62): 8 µg/mL | MIC50 ([13]; Nakaseomyces glabratus, read-out: MIC 50% inhibition, isolate 05-761): 8 µg/mL | MIC50 ([13]; Nakaseomyces glabratus, read-out: MIC 50% inhibition, isolate CG3): 8 µg/mL | MIC ([13]; Nakaseomyces glabratus, read-out: MIC 100% inhibition, isolate 05-62): 8 µg/mL | MIC 100% inhibition ([13]; isolate 05-761): 8 µg/mL | MIC 100% inhibition ([13]; isolate CG3): 8 µg/mL | MIC50 ([14]; ATCC6258, read-out: MIC 50% inhibition): 4 µg/mL | MIC ([14]; ATCC6258, read-out: MIC 100% inhibition): 4 µg/mL | MIC [15]: 8 µg/mL | MIC50 ([16]; ATCC22019, read-out: MIC 50% inhibition, isolate ATCC 22019): 4 µg/mL | MIC ([16]; ATCC22019, read-out: MIC 100% inhibition, isolate ATCC 22019): 4 µg/mL | MIC50 ([16]; read-out: MIC 50% inhibition, isolate CP1): 4 µg/mL | MIC ([16]; read-out: MIC 100% inhibition, isolate CP1): 4 µg/mL | MIC ([16]; read-out: MIC 100% inhibition, isolate CP2): 4 µg/mL | MIC ([16]; read-out: MIC 100% inhibition, isolate CP3): 8 µg/mL | MIC 50% inhibition ([16]; isolate CP2): 4 µg/mL | MIC 50% inhibition ([16]; isolate CP3): 4 µg/mL
